Test results as given in the NIST ThermoML archive (doi:10.1021/je800110r).

Settings: 313.14 K, Liquid, Vibrating tube method

CCCCCCCCCC [decane]
Settings	mass density [kg/m3]
15552 kPa	727.4
15582 kPa	727.2
15613 kPa	727.3
15637 kPa	727.3
15663 kPa	727.3
15908 kPa	727.6
15941 kPa	727.5
15972 kPa	727.6
16007 kPa	727.6
16031 kPa	727.6
16067 kPa	727.7
16091 kPa	727.6
16114 kPa	727.7
16151 kPa	727.8
16180 kPa	727.7
16204 kPa	727.8
16241 kPa	727.8
16273 kPa	727.8
16306 kPa	727.9
16338 kPa	727.9
16359 kPa	727.8
16381 kPa	727.9
16402 kPa	728
16427 kPa	727.9
16452 kPa	727.9
16478 kPa	728
16507 kPa	728
16537 kPa	728
16566 kPa	728
16587 kPa	728
16618 kPa	728.1
16648 kPa	728.1
16683 kPa	728.1
16721 kPa	728.2
16748 kPa	728.1
16784 kPa	728.2
16824 kPa	728.1
16860 kPa	728.2
16883 kPa	728.2
16907 kPa	728.3
16935 kPa	728.3
16975 kPa	728.4
16996 kPa	728.4
17023 kPa	728.3
17046 kPa	728.4
17070 kPa	728.3
17101 kPa	728.4
17124 kPa	728.5
17149 kPa	728.5
17170 kPa	728.4
17191 kPa	728.4
17222 kPa	728.6
17243 kPa	728.6
17264 kPa	728.5
17296 kPa	728.6
17320 kPa	728.5
17348 kPa	728.5
17377 kPa	728.5
17408 kPa	728.6
17430 kPa	728.7
17455 kPa	728.7
17481 kPa	728.6
17502 kPa	728.8
17528 kPa	728.7
17557 kPa	728.8
17609 kPa	728.8
17763 kPa	728.9
17790 kPa	728.9
17820 kPa	729
17842 kPa	729
17877 kPa	729.1
17905 kPa	729
17931 kPa	729.1
17958 kPa	729
17988 kPa	729.1
18011 kPa	729.1
18042 kPa	729.1
18062 kPa	729.2
18096 kPa	729.1
18131 kPa	729.2
18170 kPa	729.2
18202 kPa	729.2
18226 kPa	729.2
18249 kPa	729.2
18273 kPa	729.3
18301 kPa	729.3
18325 kPa	729.4
18346 kPa	729.4
18374 kPa	729.4
18403 kPa	729.5
18439 kPa	729.3
18460 kPa	729.4
18494 kPa	729.4
18522 kPa	729.5
18544 kPa	729.6
18569 kPa	729.5
18600 kPa	729.6
18628 kPa	729.5
18646 kPa	729.5
18671 kPa	729.5
18697 kPa	729.6
18722 kPa	729.5
18748 kPa	729.6
18781 kPa	729.6
18812 kPa	729.7
18842 kPa	729.7
18869 kPa	729.7
18894 kPa	729.8
18927 kPa	729.8
18953 kPa	729.7
18979 kPa	729.8
19001 kPa	729.8
19027 kPa	729.8
19054 kPa	729.8
19076 kPa	729.8
19102 kPa	729.9
19133 kPa	729.9
19152 kPa	730
19187 kPa	730
19210 kPa	729.9
19237 kPa	729.9
19256 kPa	730
19287 kPa	730.1
19326 kPa	730
19353 kPa	730
19380 kPa	730.1
19412 kPa	730.1
19441 kPa	730.2
19466 kPa	730.2
19487 kPa	730.2
19512 kPa	730.2
19546 kPa	730.2
19564 kPa	730.2
19582 kPa	730.2
19606 kPa	730.3
19634 kPa	730.2
19655 kPa	730.3
19686 kPa	730.3
19711 kPa	730.4
19727 kPa	730.4
19745 kPa	730.4
19773 kPa	730.4
19804 kPa	730.3
19823 kPa	730.5
19848 kPa	730.4
19867 kPa	730.5
19889 kPa	730.5
19908 kPa	730.5
19940 kPa	730.5
19959 kPa	730.6
19985 kPa	730.5
20008 kPa	730.6
20028 kPa	730.6
20055 kPa	730.6
20074 kPa	730.5
20097 kPa	730.6
20126 kPa	730.4
20150 kPa	730.6
20172 kPa	730.7
20205 kPa	730.7
20221 kPa	730.7
20238 kPa	730.8
20257 kPa	730.7
20287 kPa	730.8
20308 kPa	730.7
20329 kPa	730.8
20385 kPa	730.8
20430 kPa	730.9
20460 kPa	730.9
20488 kPa	730.9
20511 kPa	731
20535 kPa	730.9
20586 kPa	731
20611 kPa	731
20632 kPa	730.9
20663 kPa	731.1
20687 kPa	731.1
20708 kPa	731
20732 kPa	731.2
20767 kPa	731.1
20791 kPa	731.2
20819 kPa	731.1
20850 kPa	731.2
20872 kPa	731.1
20900 kPa	731.1
20932 kPa	731.4
21014 kPa	731.3
21046 kPa	731.3
21075 kPa	731.3
21144 kPa	731.3
21163 kPa	731.4
21200 kPa	731.3
21226 kPa	731.6
21308 kPa	731.5
21387 kPa	731.5
21414 kPa	731.7
21440 kPa	731.6
21471 kPa	731.6
21495 kPa	731.7
21516 kPa	731.6
21536 kPa	731.6
21563 kPa	731.7
21597 kPa	731.7
21621 kPa	731.6
21642 kPa	731.8
21663 kPa	731.8
21686 kPa	731.8
21728 kPa	731.9
21752 kPa	731.8
21771 kPa	731.8
21827 kPa	731.8
21852 kPa	731.9
21883 kPa	731.9
21911 kPa	731.9
21932 kPa	731.9
21953 kPa	731.9
21985 kPa	731.9
22006 kPa	731.9
22034 kPa	732
22060 kPa	732.1
22083 kPa	732.1
22115 kPa	732
22140 kPa	732.1
22165 kPa	732
22198 kPa	732.2
22216 kPa	732
22245 kPa	732.2
22263 kPa	732.1
22292 kPa	732.2
22321 kPa	732.2
22348 kPa	732.2
22374 kPa	732.2
22400 kPa	732.2
22426 kPa	732.3
22522 kPa	732.3
22577 kPa	732.3
22645 kPa	732.5
22672 kPa	732.5
22699 kPa	732.4
22729 kPa	732.6
22756 kPa	732.5
22794 kPa	732.6
22828 kPa	732.6
22855 kPa	732.6
22882 kPa	732.5
22904 kPa	732.6
22939 kPa	732.7
23398 kPa	733
23435 kPa	732.9
23468 kPa	732.9
23492 kPa	733
23529 kPa	733
23554 kPa	733
23579 kPa	733.1
23611 kPa	733.2
23636 kPa	733
23669 kPa	733.1
23699 kPa	733.2
23732 kPa	733.2
23758 kPa	733.2
23792 kPa	733.3
23821 kPa	733.4
23851 kPa	733.2
23873 kPa	733.2
23894 kPa	733.3
23923 kPa	733.4
23954 kPa	733.4
23992 kPa	733.4
24027 kPa	733.4
24054 kPa	733.4
24081 kPa	733.5
24116 kPa	733.5
24142 kPa	733.4
